Results reported in patent US8143226B2, “Tyrosine kinase receptor antagonists and methods of treatment for breast cancer” (The Regents of the University of California, priority 2005, dated 2012).

Legend:
Akt/BAD pathway = experiment: IGF-1 stimulated Akt and BAD phosphorylation in MCF-7 cells (western blot); assay type: cell-based, human; details: 1 nM IGF-1
Method: Inhibition of IGF-1-stimulated activation of serine kinase Akt was determined in the lysates prepared for the IGF-1R phosphotyrosine ELISA described above. 12 μg of sample was subjected to SDS-PAGE, transfer-ed to a nitrocellulose membrane, and […] quantified by blotting overnight at 4 C with a phospho-specific antibody to Akt (ser473) diluted 1:1000 in Superblock. Next, blots were washed with 3 times with TBST, then incubated with HRP conjugated sheep anti-rabbit IgG diluted 1:10,000 in Superblock for 90 minutes at room temperature. Phosphorylation of the apoptotic protein BAD was determined in the same manner by blotting with a phospho-specific antibody to BAD (ser136) (1:1,000).

rodent HER2/neu receptor = target: T1, rodent HER2/neu receptor (Rattus norvegicus, UniProt P06494); experiment: Autophosphorylation of isolated HER2/neu (western blot); assay type: biochemical; details: preincubation 20 minutes prior to 10 μM ATP
T1 construct: made in house; host or cells: MCNeuA mouse mammary carcinoma cells (MMTV/neu transgenic), partially purified by wheat germ agglutinin chromatography
T1 sequence (P06494 23-1257): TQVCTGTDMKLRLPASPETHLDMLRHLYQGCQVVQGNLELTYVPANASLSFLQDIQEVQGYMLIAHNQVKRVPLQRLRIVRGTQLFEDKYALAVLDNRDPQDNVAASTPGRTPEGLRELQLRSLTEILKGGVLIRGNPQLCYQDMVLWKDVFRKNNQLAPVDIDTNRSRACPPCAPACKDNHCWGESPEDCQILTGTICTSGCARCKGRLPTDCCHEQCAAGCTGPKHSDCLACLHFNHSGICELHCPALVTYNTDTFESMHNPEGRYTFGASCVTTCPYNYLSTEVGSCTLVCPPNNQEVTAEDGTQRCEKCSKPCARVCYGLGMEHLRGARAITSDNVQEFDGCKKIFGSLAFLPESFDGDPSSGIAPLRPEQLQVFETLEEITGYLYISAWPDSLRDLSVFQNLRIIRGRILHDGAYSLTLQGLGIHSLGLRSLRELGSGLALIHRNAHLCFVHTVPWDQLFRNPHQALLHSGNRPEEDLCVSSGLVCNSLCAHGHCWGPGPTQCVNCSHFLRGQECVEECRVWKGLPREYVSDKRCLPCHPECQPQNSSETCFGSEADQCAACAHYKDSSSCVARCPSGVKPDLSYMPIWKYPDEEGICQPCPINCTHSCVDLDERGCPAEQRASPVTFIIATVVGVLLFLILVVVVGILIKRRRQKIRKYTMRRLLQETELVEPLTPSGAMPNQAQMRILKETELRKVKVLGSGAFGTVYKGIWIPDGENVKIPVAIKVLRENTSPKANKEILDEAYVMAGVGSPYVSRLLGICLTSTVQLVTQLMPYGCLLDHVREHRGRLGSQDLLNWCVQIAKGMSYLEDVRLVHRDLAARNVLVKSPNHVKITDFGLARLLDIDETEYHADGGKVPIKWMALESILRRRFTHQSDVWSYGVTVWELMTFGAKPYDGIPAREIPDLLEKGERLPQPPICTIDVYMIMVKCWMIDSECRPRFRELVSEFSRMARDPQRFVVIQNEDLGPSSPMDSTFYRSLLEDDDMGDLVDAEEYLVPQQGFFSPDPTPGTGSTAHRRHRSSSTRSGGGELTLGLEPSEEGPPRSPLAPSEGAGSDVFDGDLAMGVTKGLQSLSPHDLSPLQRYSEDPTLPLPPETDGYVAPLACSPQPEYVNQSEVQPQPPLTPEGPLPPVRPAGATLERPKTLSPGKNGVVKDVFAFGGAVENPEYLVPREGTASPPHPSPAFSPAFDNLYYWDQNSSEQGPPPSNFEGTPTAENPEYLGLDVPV
Method: IGF-1 and HER2/neu receptors were partially purified by WGA chromatography of cells overexpressing the protein of interest. To isolate IGF-1R, CHO cells transfected with and overexpressing the human IGF-1R (CHOIGF-1R) were plated in T-150 flasks and grown in DMEM supplemented with 10% fetal calf serum (FCS) until 80% confluent. Cells were harvested in the basal state and solubilized in 50 mM HEPES, 10% glycerol, 1% Triton X-100, 150 mM NaCl, 5 μM EGTA, 0.24 mg/ml aminoethyl-benzensulfonyl fluoride (AEBSF), 10 μg/ml aprotinin, 25 mM benzamidine, 10 μg soybean trypsin inhibitor, and 5 μg/ml leuptin for one hour at 4° C. Samples were centrifuged for 60 minutes at 100,000 g and solubilized extract collected. Rodent HER2/neu receptors were collected from MCNeuA cells crown under identical conditions and processed similarly. […] WGA fractions containing RTK of interest were determined by SDS page and a western blot that employed antibodies against either the IGF-1R or HER2/neu as appropriate.
Autophosphorylation of HER2/neu in WGA preparations enriched in this RTK were determined in the absence of ligand. […] Following transfer to nitrocellulose membrane, receptor autophosphorylation was determined by a western blot that employed a phosphospecific antibody against the pNeu (Tyr1248) diluted 1:1000 in Superblock. […] Values were determined by scanning densitometry.

EGF receptor = EGF receptor (Homo sapiens, UniProt P00533); details: Seufferlein et al. 2002; cited from earlier work
Sequence of EGF receptor (P00533 25-1210): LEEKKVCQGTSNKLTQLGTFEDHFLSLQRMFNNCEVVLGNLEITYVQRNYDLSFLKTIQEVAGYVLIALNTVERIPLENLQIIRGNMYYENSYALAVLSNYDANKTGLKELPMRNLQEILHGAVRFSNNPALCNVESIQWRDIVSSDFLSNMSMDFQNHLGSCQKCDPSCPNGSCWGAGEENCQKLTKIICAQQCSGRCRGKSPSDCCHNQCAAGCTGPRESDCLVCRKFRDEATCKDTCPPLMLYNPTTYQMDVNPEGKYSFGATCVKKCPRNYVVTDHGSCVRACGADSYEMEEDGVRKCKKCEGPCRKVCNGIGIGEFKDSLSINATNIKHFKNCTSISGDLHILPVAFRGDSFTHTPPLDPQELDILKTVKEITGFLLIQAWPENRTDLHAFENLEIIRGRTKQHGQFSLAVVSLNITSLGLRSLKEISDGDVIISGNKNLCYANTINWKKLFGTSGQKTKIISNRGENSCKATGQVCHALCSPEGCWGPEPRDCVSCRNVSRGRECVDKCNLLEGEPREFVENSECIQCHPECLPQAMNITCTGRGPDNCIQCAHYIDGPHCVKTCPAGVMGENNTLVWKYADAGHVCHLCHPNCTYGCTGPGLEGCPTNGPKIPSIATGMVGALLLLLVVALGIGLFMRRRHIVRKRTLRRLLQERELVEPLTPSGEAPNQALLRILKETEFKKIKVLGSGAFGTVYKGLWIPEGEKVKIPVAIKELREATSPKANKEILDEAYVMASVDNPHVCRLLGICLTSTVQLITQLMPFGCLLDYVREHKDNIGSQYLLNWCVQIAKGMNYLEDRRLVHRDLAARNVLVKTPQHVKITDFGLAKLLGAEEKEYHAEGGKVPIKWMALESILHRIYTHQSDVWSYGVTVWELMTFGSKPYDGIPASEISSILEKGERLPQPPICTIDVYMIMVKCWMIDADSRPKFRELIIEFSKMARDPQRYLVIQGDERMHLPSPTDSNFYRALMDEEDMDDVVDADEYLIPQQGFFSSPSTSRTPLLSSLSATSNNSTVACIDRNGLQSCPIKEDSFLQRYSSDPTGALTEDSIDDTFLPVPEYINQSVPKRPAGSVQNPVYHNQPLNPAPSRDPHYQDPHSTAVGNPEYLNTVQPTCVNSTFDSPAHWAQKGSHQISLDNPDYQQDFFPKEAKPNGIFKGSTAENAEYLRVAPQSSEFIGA

MCF-7/neo cells = experiment: Tamoxifen and/or NDGA growth inhibition of MCF-7/neo cells (CyQuant); assay type: cell-based; details: Homo sapiens, MCF7
Method: Cells were estrogen-starved for three days in DMEM containing 10% charcoal-[…]-stripped FCS (CDSS) prior to their plating in 96 well plates. Cells were plated in 100 μl of the same media, allowed to adhere overnight, and then were switched to DMEM+10% CDSS supplemented with 100 pM estrogen. […] The media and inhibitors were refreshed on day 3, the cultures were harvested on day 6, and a CyQuant assay was performed as described above.

MCNeuA tumor cells = experiment: Growth of MCNeuA tumors in neuTg mice; assay type: in vivo, mouse; details: combined oral 100 mg/kg and i.p. 37.5 mg/kg groups, from 21 days post-implantation
Description: All animal studies complied with protocols approved by of the Institutional Animal Care and Use Committee of the University of California, San Francisco. Our syngeneic model studies utilized the FVB/N-TgN(MMTVneu)202 mouse strain developed by Muller and colleagues (Guy CT, Webster MA, Schaller M, Parsons TJ, Cardiff RD, Muller WJ: Expression of the neu protooncogene in the mammary epithelium of transgenic mice induces metastatic disease. Proc Natl Acad Sci USA 89:10578-10582, 1992). This strain, denoted hereafter as neuTg, expresses the wild-type rat neu proto-oncogene (a homologue of human HER2) under the control of the mouse mammary tumor virus (MMTV) long terminal repeat (LTR) on an FVB mouse background. The MCNeuA mammary carcinoma cell line employed in these studies was derived from a spontaneously arising tumor in a neuTg female mouse (Campbell MJ, Wollish WS, Lobo […] LJ: Epithelial and fibroblast cell lines derived from a spontaneous mammary carcinoma in a MMTV/neu transgenic mouse. In Vitro Cell Dev Biol Anim 38:326-333, 2002). These cells are tumorigenic when transplanted back into neuTg mice. […] This solution was kept warm at 37° C. until given to mice by i.p. injection. […] Tumor growth was measured at the time of drug delivery on alternate treatment days with calipers and volume calculated using the equation: (length×width^2)*(π/6). […]

HER2 = target: T2, HER2 (Homo sapiens, UniProt P04626); experiment: HER2 phosphorylation ELISA in MCF-7/HER2-18 cells; assay type: cell-based; details: not stimulated
T2 construct: MCF-7 cells stably transfected with the full length HER2 cDNA (MCF-7/HER2-18); expressed in transfected cells; host or cells: MCF-7/HER2-18 (from Dr. Christopher Benz)
T2 sequence (P04626 23-1255): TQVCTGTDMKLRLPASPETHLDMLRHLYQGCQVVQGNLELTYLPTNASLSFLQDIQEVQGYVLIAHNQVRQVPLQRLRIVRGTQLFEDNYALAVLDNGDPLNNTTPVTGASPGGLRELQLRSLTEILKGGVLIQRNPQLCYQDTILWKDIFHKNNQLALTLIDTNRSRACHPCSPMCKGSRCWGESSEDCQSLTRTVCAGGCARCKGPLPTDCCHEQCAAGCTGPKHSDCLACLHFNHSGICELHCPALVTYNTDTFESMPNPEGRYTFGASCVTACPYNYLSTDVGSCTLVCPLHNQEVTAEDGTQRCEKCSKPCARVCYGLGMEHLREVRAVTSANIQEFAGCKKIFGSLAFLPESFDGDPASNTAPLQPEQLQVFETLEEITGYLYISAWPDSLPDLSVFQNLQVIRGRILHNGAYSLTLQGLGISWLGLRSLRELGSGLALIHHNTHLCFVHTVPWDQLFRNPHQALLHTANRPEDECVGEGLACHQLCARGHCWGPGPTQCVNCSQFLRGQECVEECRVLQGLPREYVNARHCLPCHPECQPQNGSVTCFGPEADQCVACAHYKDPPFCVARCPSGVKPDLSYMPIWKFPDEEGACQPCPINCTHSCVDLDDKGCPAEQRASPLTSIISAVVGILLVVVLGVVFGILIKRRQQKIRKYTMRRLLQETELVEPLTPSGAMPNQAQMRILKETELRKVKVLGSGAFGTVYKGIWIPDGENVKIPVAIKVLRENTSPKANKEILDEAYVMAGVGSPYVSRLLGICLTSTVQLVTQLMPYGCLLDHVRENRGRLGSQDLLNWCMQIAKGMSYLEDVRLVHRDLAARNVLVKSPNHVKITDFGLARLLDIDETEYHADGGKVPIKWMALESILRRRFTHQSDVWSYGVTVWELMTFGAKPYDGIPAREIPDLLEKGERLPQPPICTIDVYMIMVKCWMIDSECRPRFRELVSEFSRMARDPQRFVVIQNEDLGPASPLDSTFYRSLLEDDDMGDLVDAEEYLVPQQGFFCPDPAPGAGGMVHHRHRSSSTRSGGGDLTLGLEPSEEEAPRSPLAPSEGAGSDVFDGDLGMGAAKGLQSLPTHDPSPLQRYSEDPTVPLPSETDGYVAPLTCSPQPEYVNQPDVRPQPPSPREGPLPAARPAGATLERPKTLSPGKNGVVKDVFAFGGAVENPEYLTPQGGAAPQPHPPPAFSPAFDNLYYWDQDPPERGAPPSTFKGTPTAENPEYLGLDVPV
Method: RTK inhibitors were dissolved in DMSO and diluted with culture medium before being added to cells for 1.5 hour at 37° C. The final concentration of DMSO during the incubation was 0.3% . For some studies, cells were also stimulated with 3 nM IGF-I for 10 minutes at 37° C. Reactions were terminated by rapidly aspirating medium and washing cells three times with ice cold PBS. Cells were harvested and solubilized in 50 mM HEPES, 150 mM NaCl, 1% Triton X-100, 1 mM PMSF, and 2 mM vanadate for 1 hour at 4° C. Protein concentrations were determined by BCA assay (Pierce, Rockford, Ill.). […] Briefly, 10 μg lysate protein were added to triplicate wells in a 96-well plate coated with monoclonal antibody to the IGF-IR (IR3; 2 μg/ml), and incubated for 18 hours at 4° C. Plates were washed five times and then HRP-conjugated anti-phosphotyrosine antibody (0.3 μg/ml), diluted in Solution B (50 mM HEPES, pH 7.6, 150 mM NaCl, 0.05% Tween-20, 1 mM PMSF, 2 mM vanadate and 1 mg/ml bacitracin), was added for two hours at 22° C. Plates were washed five times prior to color development with TMB substrate, which was terminated with 1.0 M H3PO4. Values for receptor phosphorylation were determined by measuring absorbance at 450 nm.
HER2 phosphorylation was also determined by ELISA as above, using 2 μg of lysate protein per well and 2 μg/ml Herceptin as the capturing antibody.

[1] = tested on: Kelly human neuroblastoma cells
Method: Briefly, 7×10^6 Kelly human neuroblastoma cells were resuspended in a 1:1 mixture of PBS and Matrigel (BD Clontech Inc.) and 100 μl of the mixture was injected subcutaneously into the flanks of 6-12 week-old BALB/c nude mice. […] Tumors were then harvested, weighed and measured. The formula width^2×length/2 was used to calculate tumor-volumes.

IGF-1 = IGF-1 activation in pancreatic cancer cells; assay type: cell-based
pancreatic cancer cells = experiment: Growth of pancreatic cancer cells in vitro; assay type: cell-based; details: FIG. 3

**Q.** Which “IGF-1 stimulated phosphorylation of Akt and BAD” value (Akt/BAD pathway) does the source give for CC(Cc1ccc(O)c(O)c1)C(C)Cc1ccc(O)c(O)c1 (stereo not drawn) [NDGA, nordihydroguaiaretic acid] here?
**A.** Its value is “reduced in a dose-dependent manner”.

**Q.** And the “ATP-induced increase in ligand-independent HER2/neu autophosphorylation” value (rodent HER2/neu receptor)?
**A.** The value was “abolished”.

**Q.** What about the EGF receptor phosphorylation (EGF receptor) of the same compound?
**A.** Its EGF receptor phosphorylation is “no affect”.

**Q.** What about the inhibition at 10 µM (MCF-7/neo cells) of the same compound?
**A.** Its inhibition at 10 µM is 23%.

**Q.** And the inhibition at 15 µM (MCF-7/neo cells)?
**A.** The inhibition at 15 µM was 55%.

**Q.** And the tumor growth (MCNeuA tumor cells)?
**A.** The tumor growth was “significantly reduced”.

**Q.** And the HER2 phosphorylation (HER2)?
**A.** Its HER2 phosphorylation is “strongly inhibited”.

**Q.** And the IC50 (HER2; read-out: half maximal effect on HER2 phosphorylation)?
**A.** Its IC50 is roughly 30 µM.

**Q.** And the “inhibition of tumor growth” value ([1]; 50 mg/kg daily for 10 d, nude mice, Kelly xenografts)?
**A.** The value was 50%.

**Q.** And the tolerability in mice ([1]; mouse, in vivo)?
**A.** The tolerability in mice was “very well tolerated”.

**Q.** And the IGF-1 activation (IGF-1)?
**A.** The IGF-1 activation was “inhibiting”.

**Q.** What about the “growth of pancreatic cancer cells in vitro” value (pancreatic cancer cells) of the same compound?
**A.** Its value is “inhibiting”.
